This is an account of results in ChEMBL document CHEMBL5370590, “Densely Functionalized Macrocyclic Sesquiterpene Pyridine Alkaloids from Maytenus austroyunnanensis” (J Nat Prod, 2023).

Each structure is given as a SMILES string. Calls of active or inactive are those of the source. The calls are words filed in the database; no cut-off is given here.

Series [1] concerns BV-2. Nature of the series: Inhibition of LPS-induced NO production in mouse BV-2 cells at 10 uM pre-incubated for 2 hrs followed by LPS stimulation and measured after 24 hrs by Griess reagent based method. It counts as functional, cell-based. The following applies: time 26.0 hrs. Background: Griess reagent forms a coloured azo dye with nitrite.
Series [2] deals with BV-2. In words: Cytotoxicity against mouse BV-2 cells assessed as reduction in cell viability at 10 uM incubated for 24 hrs by MTT assay. It counts as toxicity, cell-based. The following applies: bv-2, 24 h. Background: Tetrazolium dyes change colour on reduction, which living cells bring about.
The test system of series [3] is BV-2. In words: Inhibition of LPS-induced NO production in mouse BV-2 cells assessed as NO production at 20 uM pre-incubated for 2 hrs followed by LPS stimulation and measured after 24 hrs by Griess reagent based method relative to control. Also on record: scale not given: the % may be the effect or the level left. The settings on record: time 26 hrs. It counts as functional.

The test system of series [4] is BV-2. Nature of the series: Inhibition of LPS-induced NO production in mouse BV-2 cells assessed as NO production at 10 uM pre-incubated for 2 hrs followed by LPS stimulation and measured after 24 hrs by Griess reagent based method relative to control. The settings on record: time 26 hrs. Also on record: scale not given: the % may be the effect or the level left. It counts as functional.

For `C/C=C(\C)C(=O)O[C@H]1[C@@H]2[C@@H](OC(C)=O)[C@@]34O[C@@]2(C)COC(=O)c2cnccc2CC[C@@](C)(OC(C)=O)C(=O)O[C@@H]([C@H](OC(C)=O)[C@H](OC(C)=O)[C@@]3(COC(C)=O)[C@@H]1OC(C)=O)[C@]4(C)O`, in series [1], the inhibition result is “Active”. The Activity entry in series [2] is given as “Non-Toxic”.

Regarding `CC(=O)OC[C@]12[C@H](OC(C)=O)[C@@H](OC(C)=O)[C@@H]3[C@@H](OC(C)=O)[C@@]14O[C@@]3(C)COC(=O)c1cccnc1[C@@H](C)[C@H](C)C(=O)O[C@@H]([C@H](OC(C)=O)[C@@H]2OC(C)=O)[C@]4(C)O`, the inhibition result in series [1] is “Active”. The Activity result in series [2] is reported as “Non-Toxic”. On to `Oc1ccc(/C=C/c2cc(O)cc(O)c2)cc1` [RESVERATROL], for which the Activity in series [3] is recorded as 21.38%. `C/C=C(\C)C(=O)O[C@@H]1[C@H](OC(C)=O)[C@@]2(COC(C)=O)[C@H](OC(C)=O)C(=O)[C@@H]3[C@@H](OC(C)=O)[C@@]24O[C@@]3(C)COC(=O)c2cccnc2CC[C@@](C)(OC(C)=O)C(=O)O[C@@H]1[C@]4(C)O`: the inhibition entry in series [1] is “Active”. Further, the Activity entry in series [2] is recorded as “Non-Toxic”. In the same order, the values of `C/C=C(\C)C(=O)O[C@H]1[C@@H]2[C@@H](OC(C)=O)[C@@]34O[C@@]2(C)COC(=O)c2cccnc2CC[C@@](C)(OC(C)=O)C(=O)O[C@@H]([C@H](OC(C)=O)[C@H](OC(C)=O)[C@@]3(COC(C)=O)[C@@H]1OC(C)=O)[C@]4(C)O` are “Active” and “Non-Toxic”. As for `CC(=O)O[C@H]1C[C@](C)(O)[C@]23OC(C)(C)[C@H](C[C@H](OC(=O)c4cccnc4)[C@]2(CO)[C@H]1OC(C)=O)[C@H]3OC(C)=O`, in series [2], the Activity result is “Non-Toxic”. Regarding `C/C=C(\C)C(=O)O[C@H]1C[C@@H]2[C@@H](OC(=O)c3ccccc3)[C@@]3(OC2(C)C)[C@@]1(COC(C)=O)[C@@H](OC(C)=O)[C@@H](OC(C)=O)C[C@]3(C)O`, the Activity in series [4] is recorded as 59.61%; in series [2] it was “Non-Toxic”. The inhibition result in series [1] is “Active”. Take `CC(=O)OC[C@]12[C@H](OC(C)=O)C(=O)[C@@H]3[C@@H](OC(C)=O)[C@@]14O[C@@]3(C)COC(=O)c1cccnc1CC[C@@](C)(OC(C)=O)C(=O)O[C@@H]([C@H](OC(=O)c1cccnc1)[C@@H]2OC(C)=O)[C@]4(C)O`: in series [2], the Activity result was “Non-Toxic”. On to `C/C=C(\C)C(=O)O[C@@H]1[C@H](OC(C)=O)[C@@H]2[C@@H](OC(=O)/C(C)=C/C)[C@@]34O[C@@]2(C)COC(=O)c2cccnc2CC[C@H](C)C(=O)O[C@@H]([C@H](O)[C@H](O)[C@@]13COC(C)=O)[C@]4(C)O`, for which the inhibition entry in series [1] was “Active”. The Activity entry in series [2] is given as “Non-Toxic”. The like results for `C/C=C(\C)C(=O)O[C@@H]1[C@@H]2[C@@H](OC(C)=O)[C@@]34O[C@@]2(C)COC(=O)c2cnccc2CC[C@@](C)(OC(C)=O)C(=O)O[C@@H]([C@H](OC(=O)/C(C)=C/C)[C@H](OC(C)=O)[C@@]3(COC(C)=O)[C@@H]1OC(C)=O)[C@]4(C)O` were, in that order, “Active” and “Non-Toxic”. As to `CC(=O)OC[C@]12[C@H](OC(C)=O)[C@@H](OC(C)=O)[C@@H]3[C@@H](OC(C)=O)[C@@]14O[C@@]3(C)COC(=O)c1cccnc1[C@@H](C)[C@H](C)C(=O)O[C@@H]([C@H](OC(=O)c1ccc(=O)n(C)c1)[C@@H]2OC(C)=O)[C@]4(C)O`, in series [2], the Activity result is recorded as “Toxic”. `CC(=O)OC[C@]12[C@H](OC(C)=O)C(=O)[C@@H]3[C@@H](OC(C)=O)[C@@]14O[C@@]3(C)COC(=O)c1cccnc1CC[C@@](C)(OC(C)=O)C(=O)O[C@@H]([C@H](OC(=O)c1ccccc1)[C@@H]2OC(C)=O)[C@]4(C)O`: in series [1], the inhibition result is “Active”. In addition, the Activity result in series [2] is listed as “Non-Toxic”. In the same order, the values of `C/C=C(\C)C(=O)O[C@@H]1[C@H](OC(C)=O)[C@@]2(COC(C)=O)[C@H](OC(C)=O)C(=O)[C@@H]3[C@@H](O)[C@@]24O[C@@]3(C)COC(=O)c2cccnc2CC[C@@](C)(OC(C)=O)C(=O)O[C@@H]1[C@]4(C)O` are “Active” and “Non-Toxic”.
